From patent US6653529B2, “Use of the maize X112 mutant ahas 2 gene and imidazolinone herbicides for selection of transgenic monocots, maize, rice and wheat plants resistant to the imidazolinone herbicides” (BASF Aktiengesellschaft, priority 2000, dated 2003)

Tests used:
Assay type in all cases: in vivo
[1] = test system: untransformed Nortai (Nt) rice plants; test: Greenhouse spray test of rice with PURSUIT imazethapyr (pre- and post-emergence); settings: for No. panicles/plant Mean / No. tillers/plant Mean / Plant height Mean / Yield % 0× / Yield Mean: Nt
[2] = test system: transgenic rice Line 26 (maize XI12 ahas2 gene); test: as above
[3] = test system: T2 seeds of transgenic rice (T0 plants No. 26 and 29); test: Seed germination test on imazethapyr; settings: 5 μM imazethapyr, 1 month treatment
Description: (§1) Three tests were performed to evaluate herbicide resistance of T2 progeny of transgenic rice. T2 progeny were first evaluated by a seed germination test followed by the greenhouse spray test and PCR analysis. As a prelude to testing the transgenic plants, an experiment was conducted to germinate untransformed rice seeds at imazethapyr concentrations ranging from 0.1 to 10 μM. […] The greenhouse spray test and PCR analysis were used to further confirm the results of the seed germination test with consistent identification of lines as resistant homozygous, susceptible homozygous or segregating hemizygous.
(§2) T2 seeds harvested from individual T1 plants were sterilized in 50% Clorox® bleach (2.3% sodium hyperchlorite) for 30 min followed by a thorough rinse with autoclaved water and pre-germinated in water for 2-3 days. Thirty to 35 pre-germinated seeds were transferred to the surface of folded paper towels placed perpendicular to the bottom of a Magenta box (Sigma, St. Louis, Mo.) to which 20 ml of H2O containing 5 μM imazethapyr (AC263,499, tech grade) was added. The seedlings were grown under 12 hr light at 26° C. for about a month. Seedlings that survived the imazethapyr treatment were scored as resistant and those that died as susceptible. 5.0 μM imazethapyr, equivalent to 5 times the threshold, was used for subsequent seed germination tests of the T2 generation. T2 seeds harvested from 16 T1 lines derived from T0 plant No. 26 and those from 15 T1 lines derived from T0 plant No. 29 were screened in the seed germination tests.

untransformed rice seeds = test: Seed germination test on imazethapyr
Description: as §1, §2

[4] = test system: transgenic corn hybrids BAa-4 and MAa-7; test: Greenhouse spray test of corn, statements of the text on both transgenic lines; settings: 4× (160 g/ha)
Description: Grow one corn plant per pot (5×5 inch) in a 3×5 flat till three- to four-leaf stage (about 9 to 13 days depending on the weather). On the day of spraying, water the plants well and let excess water drip out. Spray plants on a belt-sprayer with the imidazolinone herbicides at desired rates. […] When temperature was too high, base water plants to prevent wilting. Closely observe the plants for the next two to three weeks. Symptoms of herbicide injury will be visible three days after spraying and susceptible plants will die within two to three weeks depending on temperature.
The plants were rated on a scale of 0-5 with 0 for dead plants and 5 for healthy plants with no or minimum injury.
Two transgenic hybrids BAa-4 and MAa-7 lines (see FIG. 5 for their pedigree), a non-transformed control line B×A (B73×A188), 8962IT (heterozygous XI12 imi-tolerant corn line), 8962 (wild type control) and 3395IR (homozygous XA17 imi-resistant corn line) (8962IT and 8962 were from ICI, now Garst Seed Company, Slater, Iowa 50244, and 3395IR was from Pioneer Hi-Bred International Inc, Iowa 50306-3453). Plants were sprayed with 4, 8, 16 or 20×PURSUIT® imazethapyr, ARSENAL® imazapyr, CADRE® imazameth or RAPTOR® imazamox. Plants were scored 0 to 5 (with 0 being dead plants, 5 being healthy plants with no injury) individually 16 days after herbicide treatments. […]

[5] = post-emergence, Rate 63 (g ai/ha)
[6] = post-emergence, Rate 125 (g ai/ha)
[7] = post-emergence, Rate 250 (g ai/ha)

Structure (SMILES): CCc1cnc(C2=NC(C)(C(C)C)C(=O)N2)c(C(=O)O)c1 (centres unmarked) [PURSUIT ®, imazethapyr]
- reduction in plant height ([1]; Nortai, pre-emergence, 63 g/ha): about 20%
- reduction in yield ([1]; Nortai, pre-emergence, 63 g/ha): ~40%
- No. panicles/plant Mean [1, 5]: 15.7
- No. tillers/plant Mean [1, 5]: 20.0
- Plant height Mean [1, 5]: 117.3 cm
- Yield % 0× [1, 5]: 99 % 0×
- Yield Mean [1, 5]: 227.0 g/5 plants
- No. panicles/plant Mean [1, 6]: 13.9
- No. tillers/plant Mean [1, 6]: 13.5
- Plant height Mean [1, 6]: 94.5 cm
- Yield % 0× [1, 6]: 52 % 0×
- Yield Mean [1, 6]: 120.0 g/5 plants
- No. panicles/plant Mean [1, 7]: 0
- No. tillers/plant Mean [1, 7]: 0
- Plant height Mean [1, 7]: 0 cm
- Yield % 0× [1, 7]: 0 % 0×
- Yield Mean [1, 7]: 0 g/5 plants
- No. panicles/plant Mean ([1]; pre-emergence, 63 g/ha): 5.7
- No. tillers/plant Mean ([1]; pre-emergence, 63 g/ha): 6.5
- Plant height Mean ([1]; pre-emergence, 63 g/ha): 98.0 cm
- Yield % 0× ([1]; pre-emergence, 63 g/ha): 56 % 0×
- Yield Mean ([1]; pre-emergence, 63 g/ha): 110.7 g/5 plants
- No. panicles/plant Mean ([1]; pre-emergence, 125 g/ha): 0
- No. tillers/plant Mean ([1]; pre-emergence, 125 g/ha): 0
- Plant height Mean ([1]; pre-emergence, 125 g/ha): 0 cm
- Yield % 0× ([1]; pre-emergence, 125 g/ha): 0 % 0×
- Yield Mean ([1]; pre-emergence, 125 g/ha): 0 g/5 plants
- No. panicles/plant Mean ([1]; pre-emergence, 250 g/ha): 0
- No. tillers/plant Mean ([1]; pre-emergence, 250 g/ha): 0
- Plant height Mean ([1]; pre-emergence, 250 g/ha): 0 cm
- Yield % 0× ([1]; pre-emergence, 250 g/ha): 0 % 0×
- Yield Mean ([1]; pre-emergence, 250 g/ha): 0 g/5 plants
- fate of control plants ([1]; post-emergence, 250 g ai/ha): killed all plants
- fate of control (Nortai) plants ([1]; pre-emergence, 125 and 250 g/ha): completely killed
- No. panicles/plant Mean [2, 5]: 25.3
- No. tillers/plant Mean [2, 5]: 27.1
- Plant height Mean [2, 5]: 110.1 cm
- Yield % 0× [2, 5]: 98 % 0×
- Yield Mean [2, 5]: 206.7 g/5 plants
- No. panicles/plant Mean [2, 6]: 22.8
- No. tillers/plant Mean [2, 6]: 25.6
- Plant height Mean [2, 6]: 108.1 cm
- Yield % 0× [2, 6]: 98 % 0×
- Yield Mean [2, 6]: 206.0 g/5 plants
- No. panicles/plant Mean [2, 7]: 21.7
- No. tillers/plant Mean [2, 7]: 25.4
- Plant height Mean [2, 7]: 110.3 cm
- Yield % 0× [2, 7]: 96 % 0×
- Yield Mean [2, 7]: 202.7 g/5 plants
- No. panicles/plant Mean ([2]; pre-emergence, 63 g/ha): 13.2
- No. tillers/plant Mean ([2]; pre-emergence, 63 g/ha): 14.3
- Plant height Mean ([2]; pre-emergence, 63 g/ha): 92.2 cm
- Yield % 0× ([2]; pre-emergence, 63 g/ha): 101 % 0×
- Yield Mean ([2]; pre-emergence, 63 g/ha): 155.3 g/5 plants
- No. panicles/plant Mean ([2]; pre-emergence, 125 g/ha): 14.4
- No. tillers/plant Mean ([2]; pre-emergence, 125 g/ha): 15.3
- Plant height Mean ([2]; pre-emergence, 125 g/ha): 89.7 cm
- Yield % 0× ([2]; pre-emergence, 125 g/ha): 111 % 0×
- Yield Mean ([2]; pre-emergence, 125 g/ha): 170.0 g/5 plants
- No. panicles/plant Mean ([2]; pre-emergence, 250 g/ha): 15.7
- No. tillers/plant Mean ([2]; pre-emergence, 250 g/ha): 13.3
- Plant height Mean ([2]; pre-emergence, 250 g/ha): 88.5 cm
- Yield % 0× ([2]; pre-emergence, 250 g/ha): 109 % 0×
- Yield Mean ([2]; pre-emergence, 250 g/ha): 167.0 g/5 plants
- fate of resistant transgenic plants [3]: survived and continued to grow
- fate of control seeds (untransformed rice seeds; 5 μM imazethapyr, 1 month treatment): all control seeds died
- concentration at which untransformed seeds were completely inhibited (untransformed rice seeds; germination at 0.1 to 10 μM): 1 µM

Structure (SMILES): COCc1cnc(C2=NC(C)(C(C)C)C(=O)N2)c(C(=O)O)c1 (centres unmarked) [RAPTOR ®, imazamox]
- injury to transgenic corn plants [4]: no or slight injury
